Measurements: patent publication US9656963B2 (BRISTOL-MYERS SQUIBB COMPANY, priority 2012, dated 2017)

The molecules below were run against T1, hGPR40 (Homo sapiens, UniProt O14842) (assay: FDSS-Based Intracellular Calcium Assay). Conditions: cells expressing GPR40, intracellular Ca2+ response.
T1 construct: 3x FLAG; expressed in transfected cells
Assay type: cell-based
Description: FDSS-Based Intracellular Calcium Assay
Cell lines expressing GPR40 are generated using the pDEST 3× flag gene expression system and are cultured in culture medium comprising the following components: F12 (Gibco #11765), 10% lipid deprived fetal bovine serum, 250 μg/ml zeocin and 500 μg/ml G418. To conduct the fluorescent imaging plate reader (FLIPR)-based calcium flux assay to measure intracellular Ca^2+ response, cells expressing GPR40 are plated on 384 well plates (BD Biocoat #356697) at a density of 20,000 cells/20 μL medium per well in phenol red and serum-free DMEM (Gibco #21063-029) and incubated overnight. […] Compounds are dissolved in DMSO and diluted to desired concentrations with assay buffer and added to the cells as 3x solution (20 μL per well). Run fluorescence/luminescence reader FDSS (Hamamatsu) to read intracellular Ca^2+ response.

T1 sequence (O14842 whole entry): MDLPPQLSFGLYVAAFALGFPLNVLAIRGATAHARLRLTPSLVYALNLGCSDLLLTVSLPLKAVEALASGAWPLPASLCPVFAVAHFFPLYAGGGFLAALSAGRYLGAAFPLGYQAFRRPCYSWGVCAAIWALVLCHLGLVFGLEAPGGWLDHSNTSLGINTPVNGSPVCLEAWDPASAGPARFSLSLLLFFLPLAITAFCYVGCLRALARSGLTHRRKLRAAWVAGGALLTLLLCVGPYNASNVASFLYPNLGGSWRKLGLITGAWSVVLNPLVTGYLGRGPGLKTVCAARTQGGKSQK

`Cc1cc(Br)c(F)cc1Oc1ccc(N2N=C(C(F)(F)F)CC2CC(=O)O)cc1` (racemic) [Example 10, 2-(1-(4-(4-bromo-5-fluoro-2-methylphenoxy)phenyl)-3-(trifluoromethyl)-4,5-dihydro-1H-pyrazol-5-yl)acetic acid] and `COc1ccc(F)c(-c2ccc(Oc3ccc(N4N=C(C(F)(F)F)CC4CC(=O)O)cc3)cc2C)c1` (single isomer, unassigned) [Example 16, Isomer 2, 2-(1-(4-(2′-fluoro-5′-methoxy-2-methylbiphenyl-4-yloxy)phenyl)-3-(trifluoromethyl)-4,5-dihydro-1H-pyrazol-5-yl)acetic acid] are within 1.5-fold of each other in EC50: 230 nM for the first, 340 nM for the second.

Compared with `N#CC1=NN(c2ccc(Oc3ccccc3Br)cc2)C(CC(=O)O)C1` (racemic) [Example 30, 2-(1-(4-(2-bromophenoxy)phenyl)-3-cyano-4,5-dihydro-1H-pyrazol-5-yl)acetic acid], `Cc1ccccc1Oc1ccc(N2N=C(S(C)(=O)=O)CC2CC(=O)O)cc1` (racemic) [Example 5, 2-(3-(methylsulfonyl)-1-(4-(o-tolyloxy)phenyl)-4,5-dihydro-1H-pyrazol-5-yl)acetic acid] is 9.2-fold higher in EC50: 180 nM for the first, 1650 nM for the second.

Going from `COc1ccc(F)c(-c2cc(C)c(Oc3ccc(N4N=C(C#N)CC4CC(=O)O)cc3)cc2C)c1` (racemic) [Example 35, 2-(3-cyano-1-(4-(2′-fluoro-5′-methoxy-2,5-dimethylbiphenyl-4-yloxy)phenyl)-4,5-dihydro-1H-pyrazol-5-yl)acetic acid] to `COc1cccc(-c2cc(C)c(Oc3ccc(N4N=C(C#N)CC4CC(=O)O)cc3)cc2C)c1` (racemic) [Example 36, 2-(3-cyano-1-(4-(3′-methoxy-2,5-dimethylbiphenyl-4-yloxy)phenyl)-4,5-dihydro-1H-pyrazol-5-yl)acetic acid], the EC50 rises from 180 nM to 590 nM (3.3-fold). The first is the more potent here.

First: COc1ccc(F)c(-c2ccc(Cc3ccc(N4N=C(C#N)CC4CC(=O)O)cc3)c(C)c2)c1 (single isomer, unassigned) [Example 34, Isomer 2, 2-(3-cyano-1-(4-((2′-fluoro-5′-methoxy-3-methylbiphenyl-4-yl)methyl)phenyl)-4,5-dihydro-1H-pyrazol-5-yl)acetic acid]
Second: COc1ccc(F)c(-c2ccc(Cc3ccc(N4N=C(C(F)(F)F)CC4CC(=O)O)cc3)c(C)c2)c1 (single isomer, unassigned) [Example 17, Isomer 1, 2-(1-(4-((2′-fluoro-5′-methoxy-3-methylbiphenyl-4-yl)methyl)phenyl)-3-(trifluoromethyl)-4,5-dihydro-1H-pyrazol-5-yl)acetic acid]
The EC50 of the first is 3.7-fold higher: 560 nM for the first, 150 nM for the second. The second is the more potent here.

`COc1ccc(F)c(-c2ccc(Cc3ccc(N4N=C(C(F)(F)F)C(C(C)C)C4CC(=O)O)cc3)c(C)c2)c1` (single isomer, unassigned) [Example 45, Isomer 2, 2-(1-(4-((2′-fluoro-5′-methoxy-3-methylbiphenyl-4-yl)methyl)phenyl)-4-isopropyl-3-(trifluoromethyl)-4,5-dihydro-1H-pyrazol-5-yl)acetic acid] and `COc1ccc(F)c(-c2ccc(Cc3ccc(N4N=C(C(F)(F)F)C(CC(C)C)C4CC(=O)O)cc3)c(C)c2)c1` (single isomer, unassigned) [Example 41, Isomer 2, 2-(1-(4-((2′-fluoro-5′-methoxy-3-methylbiphenyl-4-yl)methyl)phenyl)-4-isobutyl-3-(trifluoromethyl)-4,5-dihydro-1H-pyrazol-5-yl)acetic acid] are within 1.5-fold of each other in EC50: 70 nM for the first, 95 nM for the second.

Going from `COc1ccc(F)c(-c2ccc(Oc3ccc(N4N=C(C(F)(F)F)CC4CC(=O)O)cc3)cc2C)c1` (single isomer, unassigned) [Example 16, Isomer 1, 2-(1-(4-(2′-fluoro-5′-methoxy-2-methylbiphenyl-4-yloxy)phenyl)-3-(trifluoromethyl)-4,5-dihydro-1H-pyrazol-5-yl)acetic acid] to `COc1ccc(F)c(-c2ccc(Oc3ccc(N4N=C(C(F)(F)F)CC4CC(=O)O)cc3)c(Cl)c2)c1` (single isomer, unassigned) [Example 42, Isomer 2, 2-(1-(4-(3-chloro-2′-fluoro-5′-methoxybiphenyl-4-yloxy)phenyl)-3-(trifluoromethyl)-4,5-dihydro-1H-pyrazol-5-yl)acetic acid], the EC50 falls from 670 nM to 290 nM (2.3-fold). The second is the more potent here.

First: COc1ccc(F)c(-c2ccc(Cc3ccc(N4N=C(c5ncccn5)C(C)C4CC(=O)O)cc3)c(C)c2)c1 (single isomer, unassigned) [Example 61, isomer 2]
Second: COc1ccc(F)c(-c2ccc(Cc3ccc(N4N=C(c5ccccc5)C(C)C4CC(=O)O)cc3)c(C)c2)c1 (single isomer, unassigned) [Example 59, Isomer 1, 2-(1-(4-((2′-fluoro-5′-methoxy-3-methyl-[1,1′-biphenyl]-4-yl)methyl)phenyl)-4-methyl-3-phenyl-4,5-dihydro-1H-pyrazol-5-yl)acetic acid]
The EC50 of the first is 14-fold lower: 460 nM for the first, 6470 nM for the second. The first is the more potent here.

First: COc1ccc(F)c(-c2ccc(Cc3ccc(N4N=C(C(F)(F)F)C(c5ccccc5)C4CC(=O)O)cc3)c(C)c2)c1 (single isomer, unassigned) [Example 47, Isomer 1, 2-(1-(4-((2′-fluoro-5′-methoxy-3-methylbiphenyl-4-yl)methyl)phenyl)-4-phenyl-3-(trifluoromethyl)-4,5-dihydro-1H-pyrazol-5-yl)acetic acid]
Second: COc1ccc(F)c(-c2ccc(Cc3ccc(N4N=C(C(F)(F)F)C(C5CC5)C4CC(=O)O)cc3)c(C)c2)c1 (single isomer, unassigned) [Example 43, Isomer 1, 2-(4-cyclopropyl-1-(4-((2′-fluoro-5′-methoxy-3-methylbiphenyl-4-yl)methyl)phenyl)-3-(trifluoromethyl)-4,5-dihydro-1H-pyrazol-5-yl)acetic acid]
The EC50 of the first is 3.7-fold lower: 890 nM for the first, 3280 nM for the second. The first is the more potent here.

Compared with `O=C(O)CC1CC(C(F)(F)F)=NN1c1ccc(OCc2ccccc2)cc1` (racemic) [Example 1, 2-(1-(4-(benzyloxy)phenyl)-3-(trifluoromethyl)-4,5-dihydro-1H-pyrazol-5-yl)acetic acid], `COc1ccc(Cl)c(-c2ccc(Cc3ccc(N4N=C(C(F)(F)F)CC4CC(=O)O)cc3)cc2C)c1` (racemic) [Example 23, 2-(1-(4-((2′-chloro-5′-methoxy-2-methylbiphenyl-4-yl)methyl)phenyl)-3-(trifluoromethyl)-4,5-dihydro-1H-pyrazol-5-yl)acetic acid] is 5.6-fold lower in EC50: 1960 nM for the first, 350 nM for the second. The second is the more potent here.

`Cc1nc(-c2ccccc2)ncc1Cc1ccc(N2N=C(C(F)(F)F)[C@@H](C)[C@@H]2CC(=O)O)cc1` [Example 58, 2-((4S,5S)-4-methyl-1-(4-((4-methyl-2-phenylpyrimidin-5-yl)methyl)phenyl)-3-(trifluoromethyl)-4,5-dihydro-1H-pyrazol-5-yl)acetic acid] and `COc1ncccc1-c1ccc(Cc2ccc(N3N=C(C(F)(F)F)[C@@H](C)[C@@H]3CC(=O)O)cc2)c(C)c1` [Example 77, 2-((4S,5S)-1-(4-(4-(2-methoxypyridin-3-yl)-2-methylbenzyl)phenyl)-4-methyl-3-(trifluoromethyl)-4,5-dihydro-1H-pyrazol-5-yl)acetic acid] are within 1.5-fold of each other in EC50: 4290 nM for the first, 5370 nM for the second.

Compared with `COc1ccc(F)c(-c2ncc(Cc3ccc(N4N=C(c5ccccc5)[C@@H](C)[C@@H]4CC(=O)O)cc3)c(C)n2)c1` [Example 64, 2-((4S,5S)-1-(4-((2-(2-fluoro-5-methoxyphenyl)-4-methylpyrimidin-5-yl)methyl)phenyl)-4-methyl-3-phenyl-4,5-dihydro-1H-pyrazol-5-yl)acetic acid], `COc1ccc(F)c(-c2ccc(Cc3ccc(N4N=C(c5cccc(Cl)c5)[C@@H](C)[C@@H]4CC(=O)O)cc3)c(C)c2)c1` (single isomer, unassigned) [Example 68, isomer 2] is 31-fold higher in EC50: 270 nM for the first, 8460 nM for the second.

Going from `COc1ccc(F)c(-c2ccc(Cc3ccc(N4N=C(C(=O)O)[C@@H](C)[C@@H]4CC(=O)O)cc3)c(C)c2)c1` [Example 57, (4S,5S)-5-(carboxymethyl)-1-(4-((2′-fluoro-5′-methoxy-3-methyl-[1,1′-biphenyl]-4-yl)methyl)phenyl)-4-methyl-4,5-dihydro-1H-pyrazole-3-carboxylic acid] to `COc1ccc(F)c(-c2ccc(Cc3ccc(N4N=C(C(F)(F)F)CC4(C)CC(=O)O)cc3)c(C)c2)c1` (single isomer, unassigned) [Example 51, Isomer 2, 2-(1-(4-((2′-fluoro-5′-methoxy-3-methylbiphenyl-4-yl)methyl)phenyl)-5-methyl-3-(trifluoromethyl)-4,5-dihydro-1H-pyrazol-5-yl)acetic acid], the EC50 falls from 6620 nM to 1490 nM (4.4-fold). The second is the more potent here.

Compared with `COc1ccc(F)c(-c2cnc(Oc3ccc(N4N=C(C(F)(F)F)[C@@H](C)[C@@H]4CC(=O)O)cc3)nc2)c1` [Example 65, 2-((4S,5S)-1-(4-(5-(2-fluoro-5-methoxyphenyl)pyrimidin-2-yloxy)phenyl)-4-methyl-3-(trifluoromethyl)-4,5-dihydro-1H-pyrazol-5-yl)acetic acid], `COc1ccc(F)c(-c2ccc(Cc3ccc(N4N=C(C(F)(F)F)CC4CC(=O)O)cc3)c(Cl)c2)c1` (single isomer, unassigned) [Example 20, Isomer 1, 2-(1-(4-((3-chloro-2′-fluoro-5′-methoxybiphenyl-4-yl)methyl)phenyl)-3-(trifluoromethyl)-4,5-dihydro-1H-pyrazol-5-yl)acetic acid] is 3.2-fold lower in EC50: 1490 nM for the first, 470 nM for the second.

For `COc1ccc(F)c(-c2ccc(Cc3ccc(N4N=C(C(F)(F)F)C[C@@H]4CC(=O)O)cc3)c(Cl)c2)c1` (single isomer, unassigned) [Example 20, Isomer 2], the EC50 was 50 nM.
